Each compound was assayed against T1, human PTH1 receptor (Homo sapiens, UniProt Q03431) (assay: In vitro cAMP signal activity in HKRK-B7 cells (LLC-PK1 cells overexpressing the human PTH1 receptor)). Conditions: HKRK-B7 cells; compound at 1×10^−3 M; cAMP produced as percentage of that produced by hPTH(1-34) at 100 nM.
T1 sequence (Q03431 27-593): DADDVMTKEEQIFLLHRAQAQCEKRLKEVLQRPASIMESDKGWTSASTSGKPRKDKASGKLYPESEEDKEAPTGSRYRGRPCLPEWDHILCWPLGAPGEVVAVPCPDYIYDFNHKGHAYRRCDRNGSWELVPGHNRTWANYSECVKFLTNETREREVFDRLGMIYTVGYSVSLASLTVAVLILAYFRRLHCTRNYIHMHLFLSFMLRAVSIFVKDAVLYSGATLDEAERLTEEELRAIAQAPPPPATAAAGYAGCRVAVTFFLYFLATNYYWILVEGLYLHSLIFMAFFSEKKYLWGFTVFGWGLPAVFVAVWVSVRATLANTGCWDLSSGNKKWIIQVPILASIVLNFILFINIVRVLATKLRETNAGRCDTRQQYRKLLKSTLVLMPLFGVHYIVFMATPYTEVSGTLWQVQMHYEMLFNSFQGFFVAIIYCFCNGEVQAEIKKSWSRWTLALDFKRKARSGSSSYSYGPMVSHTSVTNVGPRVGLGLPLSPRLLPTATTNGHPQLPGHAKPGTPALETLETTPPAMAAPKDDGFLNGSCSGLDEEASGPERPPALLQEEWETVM
Type: cell-based

SMILES | cAMP production activity (%)
CC(=O)NCCc1ccc(/C=C/S(=O)(=O)N2CCC3(CC2)N=C(C2CCCCC2)NC3=O)cc1 [Compound 481, N-(2-{4-[(E)-2-(2-cyclohexyl-4-oxo-1,3,8-triaza-spiro[4.5]dec-1-ene-8-sulfonyl)-vinyl]-phenyl}-ethyl)-acetamide] | 59%
CC(=O)NC(C)c1ccc(/C=C/S(=O)(=O)N2CCC3(CC2)N=C(C2CCCCC2)NC3=O)cc1 (centres unmarked) [Compound 482, N-(1-{4-[(E)-2-(2-cyclohexyl-4-oxo-1,3,8-triaza-spiro[4.5]dec-1-ene-8-sulfonyl)-vinyl]-phenyl}-ethyl)-acetamide] | 38%
O=C1NC(C2CCCCC2)=NC12CCN(S(=O)(=O)/C=C/c1cccc3c1ccn3Cc1nccs1)CC2 [Compound 483, 2-cyclohexyl-8-[(E)-2-(1-thiazol-2-ylmethyl-1H-indol-4-yl)-ethenesulfonyl]-1,3,8-triaza-spiro[4.5]dec-1-en-4-one] | 41%
NS(=O)(=O)CCCn1ccc2c(/C=C/S(=O)(=O)N3CCC4(CC3)N=C(C3CCCCC3)NC4=O)cccc21 [Compound 484, 3-{4-[(E)-2-(2-cyclohexyl-4-oxo-1,3,8-triaza-spiro[4.5]dec-1-ene-8-sulfonyl)-vinyl]-indol-1-yl}-propane-1-sulfonic acid amide] | 47%
CN1CCN(C(=O)Nc2ccc(/C=C/S(=O)(=O)N3CCC4(CC3)N=C(C3CCCCC3)NC4=O)c(C(F)(F)F)c2)CC1 [Compound 485, 4-methyl-piperazine-1-carboxylic acid {4-[(E)-2-(2-cyclohexyl-4-oxo-1,3,8-triaza-spiro[4.5]dec-1-ene-8-sulfonyl)-vinyl]-3-trifluoromethyl-phenyl}-amide] | 7.7%
CC(C)COC(=O)NCc1ccc(/C=C/S(=O)(=O)N2CCC3(CC2)N=C(C2CCCCC2)NC3=O)cc1 [Compound 486, {4-[(E)-2-(2-cyclohexyl-4-oxo-1,3,8-triaza-spiro[4.5]dec-1-ene-8-sulfonyl)-vinyl]-benzyl}-carbamic acid isobutyl ester] | 59%
O=C1NC(C2CCCCC2)=NC12CCN(S(=O)(=O)/C=C/c1ccc3c(ccn3CCOCCO)c1)CC2 [Compound 487, 2-cyclohexyl-8-((E)-2-{1-[2-(2-hydroxy-ethoxy)-ethyl]-1H-indol-5-yl}-ethenesulfonyl)-1,3,8-triaza-spiro[4.5]dec-1-en-4-one] | 49%
Cc1cc2[nH]ccc2cc1/C=C/S(=O)(=O)N1CCC2(CC1)N=C(C1CCCCC1)NC2=O [Compound 488, 2-cyclohexyl-8-[(E)-2-(6-methyl-1H-indol-5-yl)-ethenesulfonyl]-1,3,8-triaza-spiro[4.5]dec-1-en-4-one] | 48%
O=C(CO)NCc1ccc(/C=C/S(=O)(=O)N2CCC3(CC2)N=C(C2CCCCC2)NC3=O)cc1 [Compound 489, N-{4-[(E)-2-(2-cyclohexyl-4-oxo-1,3,8-triaza-spiro[4.5]dec-1-ene-8-sulfonyl)-vinyl]-benzyl}-2-hydroxy-acetamide] | 37%
CN(C)C(=O)NCCc1ccc(/C=C/S(=O)(=O)N2CCC3(CC2)N=C(C2CCCCC2)NC3=O)cc1 [Compound 490, 3-(2-{4-[(E)-2-(2-cyclohexyl-4-oxo-1,3,8-triaza-spiro[4.5]dec-1-ene-8-sulfonyl)-vinyl]-phenyl}-ethyl)-1,1-dimethyl-urea] | 26%
Nc1cc(C(F)(F)F)c(/C=C/S(=O)(=O)N2CCC3(CC2)N=C(C2CCCCC2)NC3=O)c(C(F)(F)F)c1 [Compound 491, 8-[(E)-2-(4-amino-2,6-bis-trifluoromethyl-phenyl)-ethenesulfonyl]-2-cyclohexyl-1,3,8-triaza-spiro[4.5]dec-1-en-4-one] | 58%
O=C1NC(C2CCCCC2)=NC12CCN(S(=O)(=O)/C=C/c1cc3cc[nH]c3cc1C(F)(F)F)CC2 [Compound 492, 2-cyclohexyl-8-[(E)-2-(6-trifluoromethyl-1H-indol-5-yl)-ethenesulfonyl]-1,3,8-triaza-spiro[4.5]dec-1-en-4-one] | 37%
COC(=O)CNc1ccc(/C=C/S(=O)(=O)N2CCC3(CC2)N=C(C2CCCCC2)NC3=O)c(C(F)(F)F)c1 [Compound 493, {4-[(E)-2-(2-cyclohexyl-4-oxo-1,3,8-triaza-spiro[4.5]dec-1-ene-8-sulfonyl)-vinyl]-3-trifluoromethyl-phenylamino}-acetic acid methyl ester] | 50%
O=C(CNc1ccc(/C=C/S(=O)(=O)N2CCC3(CC2)N=C(C2CCCCC2)NC3=O)c(C(F)(F)F)c1)NCCO [Compound 494, 2-{4-[(E)-2-(2-cyclohexyl-4-oxo-1,3,8-triaza-spiro[4.5]dec-1-ene-8-sulfonyl)-vinyl]-3-trifluoromethyl-phenylamino}-N-(2-hydroxy-ethyl)-acetamide] | 66%
CN(CCO)S(=O)(=O)c1ccc(/C=C/S(=O)(=O)N2CCC3(CC2)N=C(C2CCCCC2)NC3=O)c(C(F)(F)F)c1 [Compound 495, 4-[(E)-2-(2-cyclohexyl-4-oxo-1,3,8-triaza-spiro[4.5]dec-1-ene-8-sulfonyl)-vinyl]-N-(2-hydroxy-ethyl)-N-methyl-3-trifluoromethyl-benzenesulfonamide] | 21%
O=C1NC(C2CCCCC2)=NC12CCN(S(=O)(=O)/C=C/c1ccc(S(=O)(=O)N(CCO)CCO)cc1C(F)(F)F)CC2 [Compound 496, 4-[(E)-2-(2-cyclohexyl-4-oxo-1,3,8-triaza-spiro[4.5]dec-1-ene-8-sulfonyl)-vinyl]-N,N-bis-(2-hydroxy-ethyl)-3-trifluoromethyl-benzenesulfonamide] | 24%
Cc1cc(NCCN(C)C)ccc1/C=C/S(=O)(=O)N1CCC2(CC1)N=C(C1CCCCC1)NC2=O [Compound 497, 2-cyclohexyl-8-{(E)-2-[4-(2-dimethylamino-ethylamino)-2-methyl-phenyl]-ethenesulfonyl}-1,3,8-triaza-spiro[4.5]dec-1-en-4-one] | 38%
CC(=O)NCCNC(=O)CNc1ccc(/C=C/S(=O)(=O)N2CCC3(CC2)N=C(C2CCCCC2)NC3=O)c(C(F)(F)F)c1 [Compound 498, N-(2-acetylamino-ethyl)-2-{4-[(E)-2-(2-cyclohexyl-4-oxo-1,3,8-triaza-spiro[4.5]dec-1-ene-8-sulfonyl)-vinyl]-3-trifluoromethyl-phenylamino}-acetamide] | 53%
O=C1NC(C2CCCCC2)=NC12CCN(S(=O)(=O)/C=C/c1cc3nc[nH]c3cc1C(F)(F)F)CC2 [Compound 499, 2-cyclohexyl-8-[(E)-2-(6-trifluoromethyl-1H-benzimidazol-5-yl)-ethenesulfonyl]-1,3,8-triaza-spiro[4.5]dec-1-en-4-one] | 40%
CC1(C)OC[C@H](Cn2ccc3c(/C=C/S(=O)(=O)N4CCC5(CC4)N=C(C4CCCCC4)NC5=O)c(F)ccc32)O1 [Compound 500, 2-cyclohexyl-8-{(E)-2-[1-((S)-2,2-dimethyl-[1,3]dioxolan-4-ylmethyl)-5-fluoro-1H-indol-4-yl]-ethenesulfonyl}-1,3,8-triaza-spiro[4.5]dec-1-en-4-one] | 61%

From patent US9169254B2, “Spiroimidazolone derivative” (Chugai Seiyaku Kabushiki Kaisha, priority 2009, dated 2015)
